The subject of this assay is P388 leukemia ip, CD2F1 mice, survival T/C. The experiment in a line: NCI In Vivo Anticancer Drug Screen. Data for tumor model P388 Leukemia (intraperitoneal) in CD2F1 (CDF1) mice. The note with it: endpoint: median survival time, higher = longer survival. An outline of the steps:
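Mice carrying the transplanted tumor received test compound or vehicle. Survival was recorded in each group, and the value is the treated-group measurement divided by that of the vehicle-treated control group.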

[1] abbreviates: dose: 100.0 mg/kg/injection, schedule: Q04DX003 (ip), vehicle: saline with Tween-80.
Where [2] appears, read: dose: 50.0 mg/kg/injection, schedule: Q01DX009 (ip), vehicle: Klucel (hydroxypropylcellulose) (HPC).
Where [3] appears, read: dose: 100.0 mg/kg/injection, schedule: Q01DX009 (ip), vehicle: Klucel (hydroxypropylcellulose) (HPC).

The values that follow come from PubChem BioAssay AID330 (DTP/NCI, 2004).

Values joined by “and” are separate entries in the source; they are usually repeats but may differ in a detail not shown here. Equal entries are not always repeated. Toxic doses and inconclusive results are not listed. Square brackets hold non-standard residues; d marks the D form. Peptide text beside a SMILES is read from it. ξ: configuration not given here. ξY = NC(Cc1ccc(O)cc1)C(=O)O

As for `Cc1c2ccn3c(=O)c4ccccc4cc3c2c(C)c2c1[nH]c1ccccc12`, the T/C is 89 % of control (dose: 0.78 mg/kg/injection, schedule: Q04DX003 (ip), vehicle: distilled water + Tween-80); 87 % of control (dose: 1.56 mg/kg/injection, schedule: Q04DX003 (ip), vehicle: distilled water + Tween-80); 95 % of control (dose: 200.0 mg/kg/injection, schedule: Q04DX003 (ip), vehicle: distilled water + Tween-80).
For the compound `COC(=O)C#CBr`, the T/C is 100 % of control (dose: 3.13 mg/kg/injection, schedule: Q04DX003 (ip), vehicle: saline) and 100 % of control (dose: 6.25 mg/kg/injection, schedule: Q04DX003 (ip), vehicle: saline).
For the compound `C/C(=N\O)C1CC2C=C(C#N)C1N(Cc1ccccc1)C2` (centres undefined), the T/C is 96 % of control (dose: 8.75 mg/kg/injection, schedule: Q01DX005 (ip), vehicle: Klucel (hydroxypropylcellulose) (HPC)); 93 % of control (dose: 17.5 mg/kg/injection, schedule: Q01DX005 (ip), vehicle: Klucel (hydroxypropylcellulose) (HPC)); 123 % of control (dose: 35.0 mg/kg/injection, schedule: Q01DX005 (ip), vehicle: Klucel (hydroxypropylcellulose) (HPC)).
`COc1cc2c(c(Cl)c1OC)CCN(C)CC2c1ccccc1` (centres undefined): the T/C (dose: 60.0 mg/kg/injection, schedule: Q01DX005 (ip), vehicle: saline) was 102 % of control and the T/C (dose: 120.0 mg/kg/injection, schedule: Q01DX005 (ip), vehicle: saline) is 98 % of control.
Take `COc1ccc2nc(C)cc(N/N=C/c3ccc(N(CCCl)CCCl)cc3)c2c1`: the T/C (dose: 0.78 mg/kg/injection, schedule: Q01DX009 (ip), vehicle: Klucel (hydroxypropylcellulose) (HPC)) is 105 % of control; the T/C (dose: 1.56 mg/kg/injection, schedule: Q01DX009 (ip), vehicle: Klucel (hydroxypropylcellulose) (HPC)) was 103 % of control; the T/C (dose: 3.12 mg/kg/injection, schedule: Q01DX009 (ip), vehicle: Klucel (hydroxypropylcellulose) (HPC)) is 90 % of control and 98 % of control; the T/C (dose: 6.25 mg/kg/injection, schedule: Q01DX009 (ip), vehicle: Klucel (hydroxypropylcellulose) (HPC)) is 90 % of control; the T/C (dose: 25.0 mg/kg/injection, schedule: Q01DX009 (ip), vehicle: Klucel (hydroxypropylcellulose) (HPC)) is 90 % of control.
Turning to `O=C(O)c1cc(Br)c2ccccc2c1O`, the T/C (dose: 25.0 mg/kg/injection, schedule: Q04DX003 (ip), vehicle: saline with Tween-80) is 100 % of control; the T/C (dose: 50.0 mg/kg/injection, schedule: Q04DX003 (ip), vehicle: saline with Tween-80) is 100 % of control; the T/C under setting [1] was 100 % of control.
For `N#CC(C(=O)CCc1nc2ccccc2[nH]1)c1c(Cl)cccc1Cl` (centres undefined), the T/C is, setting by setting: (dose: 60.0 mg/kg/injection, schedule: Q01DX005 (ip), vehicle: saline with Tween-80) 109 % of control; (dose: 120.0 mg/kg/injection, schedule: Q01DX005 (ip), vehicle: saline with Tween-80) 101 % of control; (dose: 240.0 mg/kg/injection, schedule: Q01DX005 (ip), vehicle: saline with Tween-80) 102 % of control.
Turning to `Cc1cccc(=O)[n-]1.Cc1cccc(=O)[n-]1.Cc1cccc(=O)[n-]1.Cc1cccc(=O)[n-]1.[Mo+2].[Mo+2]`, the T/C (dose: 100.0 mg/kg/injection, schedule: Q04DX002 (ip), vehicle: Klucel (hydroxypropylcellulose) (HPC)) is 102 % of control; the T/C (dose: 200.0 mg/kg/injection, schedule: Q04DX002 (ip), vehicle: Klucel (hydroxypropylcellulose) (HPC)) was 98 % of control; the T/C (dose: 400.0 mg/kg/injection, schedule: Q04DX002 (ip), vehicle: Klucel (hydroxypropylcellulose) (HPC)) is 100 % of control.
Take `CC([NH-])C[NH-].O=S(=O)(O)O.[Pt+2]` (centres undefined): the T/C was 154 % of control (dose: 3.12 mg/kg/injection, schedule: Q04DX002 (ip), vehicle: saline); 90 % of control and 118 % of control (dose: 12.5 mg/kg/injection, schedule: Q04DX002 (ip), vehicle: saline).
`CCOc1c(N=Nc2ccc(C)cc2)c(C)nn1C(N)=S`: the T/C was 103 % of control (dose: 15.0 mg/kg/injection, schedule: Q01DX005 (ip), vehicle: Klucel + Tween-80) and 105 % of control (dose: 30.0 mg/kg/injection, schedule: Q01DX005 (ip), vehicle: Klucel + Tween-80).
Consider `O=C1COc2ccccc2C(=O)C1`, for which the T/C (dose: 50.0 mg/kg/injection, schedule: Q01DX009 (ip), vehicle: saline) was 109 % of control; the T/C (dose: 100.0 mg/kg/injection, schedule: Q01DX009 (ip), vehicle: saline) was 101 % of control; the T/C (dose: 200.0 mg/kg/injection, schedule: Q01DX009 (ip), vehicle: saline) was 101 % of control.
As to `CCN(CC)CCCC(C)NC(=O)Cc1cc(O)c2c(c1O)C(=O)c1ccccc1C2=O` (centres undefined), the T/C reads like this: (dose: 2.5 mg/kg/injection, schedule: Q01DX009 (ip), vehicle: water) 108 % of control and 112 % of control; (dose: 5.0 mg/kg/injection, schedule: Q01DX009 (ip), vehicle: water) 102 % of control and 110 % of control; (dose: 10.0 mg/kg/injection, schedule: Q01DX009 (ip), vehicle: water) 99 % of control and 103 % of control and 97 % of control; (dose: 20.0 mg/kg/injection, schedule: Q01DX009 (ip), vehicle: water) 99 % of control and 110 % of control and 93 % of control; (dose: 40.0 mg/kg/injection, schedule: Q01DX009 (ip), vehicle: water) 102 % of control and 113 % of control; (dose: 80.0 mg/kg/injection, schedule: Q01DX009 (ip), vehicle: water) 108 % of control.
Turning to `COc1ccc(Oc2cc3c[n+](C)ccc3cc2OC)cc1`, the T/C (dose: 12.5 mg/kg/injection, schedule: Q01DX009 (ip), vehicle: saline) is 111 % of control and the T/C (dose: 25.0 mg/kg/injection, schedule: Q01DX009 (ip), vehicle: saline) is 117 % of control.
Turning to `Cc1coc2c1C[C@@]1(C)[C@H](C2)C(=O)CC[C@@H]1C`, the T/C (dose: 37.5 mg/kg/injection, schedule: Q01DX009 (ip), vehicle: Klucel (hydroxypropylcellulose) (HPC)) is 105 % of control.
As to `COc1ccc(NC(CCN2CCN(c3ccccc3)CC2)=NC(C)(C)C)cc1`, the T/C was 96 % of control under setting [2] and 96 % of control under setting [3].
In the case of `CC(=O)NCCSC(=O)C(O)(c1ccccc1)c1ccccc1`, the T/C by setting is: under setting [2], 100 % of control; under setting [3], 98 % of control; (dose: 200.0 mg/kg/injection, schedule: Q01DX009 (ip), vehicle: Klucel (hydroxypropylcellulose) (HPC)) 99 % of control.
As for `Cl[C](Cl)(Cl)[Hg][c]1ccccc1`, the T/C (dose: 1.5 mg/kg/injection, schedule: Q01DX009 (ip), vehicle: saline with Tween-80) was 98 % of control; the T/C (dose: 3.0 mg/kg/injection, schedule: Q01DX009 (ip), vehicle: saline with Tween-80) was 99 % of control; the T/C (dose: 6.0 mg/kg/injection, schedule: Q01DX009 (ip), vehicle: saline with Tween-80) is 114 % of control; the T/C (dose: 12.0 mg/kg/injection, schedule: Q01DX009 (ip), vehicle: saline with Tween-80) is 89 % of control.
With `O=C1C=CC(=Nc2cccc3c2C(=O)c2ccccc2-3)O1`, the T/C runs as follows: (dose: 50.0 mg/kg/injection, schedule: Q01DX005 (ip), vehicle: saline with Tween-80) 107 % of control and 115 % of control; (dose: 100.0 mg/kg/injection, schedule: Q01DX005 (ip), vehicle: saline with Tween-80) 120 % of control and 122 % of control; (dose: 200.0 mg/kg/injection, schedule: Q01DX005 (ip), vehicle: saline with Tween-80) 122 % of control.
In the case of `NCC(=O)NC(Cc1ccc(O)cc1)C(=O)NCC(=O)O` (centres undefined) (H-Gly-[ξY]-Gly-OH), the T/C (dose: 50.0 mg/kg/injection, schedule: Q01DX005 (ip), vehicle: Klucel (hydroxypropylcellulose) (HPC)) was 99 % of control; the T/C (dose: 100.0 mg/kg/injection, schedule: Q01DX005 (ip), vehicle: Klucel (hydroxypropylcellulose) (HPC)) was 98 % of control; the T/C (dose: 200.0 mg/kg/injection, schedule: Q01DX005 (ip), vehicle: Klucel (hydroxypropylcellulose) (HPC)) was 98 % of control.
As to `CN(C)CC#N`, the T/C is 104 % of control (dose: 5.0 mg/kg/injection, schedule: Q01DX009 (ip), vehicle: saline); 109 % of control (dose: 10.0 mg/kg/injection, schedule: Q01DX009 (ip), vehicle: saline); 109 % of control (dose: 20.0 mg/kg/injection, schedule: Q01DX009 (ip), vehicle: saline).
For `O=C1Nc2ccccc2S/C1=C/c1ccccc1`, the T/C (dose: 50.0 mg/kg/injection, schedule: Q01DX009 (ip), vehicle: gum acacia) is 109 % of control; the T/C (dose: 100.0 mg/kg/injection, schedule: Q01DX009 (ip), vehicle: gum acacia) is 113 % of control; the T/C (dose: 200.0 mg/kg/injection, schedule: Q01DX009 (ip), vehicle: gum acacia) is 97 % of control.
Turning to `c1ccc2sc(SN3CCOCC3)nc2c1`, the T/C reads like this: under setting [1], 87 % of control; (dose: 200.0 mg/kg/injection, schedule: Q04DX003 (ip), vehicle: saline with Tween-80) 100 % of control; (dose: 400.0 mg/kg/injection, schedule: Q04DX003 (ip), vehicle: saline with Tween-80) 95 % of control.
